# Test results reported in patent publication US20210183467A1, “SYSTEM AND METHOD FOR USING MICROBIOME TO DE-RISK DRUG DEVELOPMENT” (YALE UNIVERSITY, priority 2018, published 2021).
# Experiments:
# [1] = Physiologically based multi-compartment pharmacokinetic model; design: species or system mouse; conditions: GN^WT mice, oral BRV
# Description: These quantitative measurements of drug and metabolite levels, collected over time, were used in various compartments, and in the presence and absence of microbial drug metabolism, to build the predictor module 130 which implements a physiologically based pharmacokinetic model to predict the levels and source of systemic drug and metabolite exposure over time, and quantify the contribution of host and microbiota to systemic drug and metabolite exposure. First, to parameterize processes independent from microbial BRV metabolism (grey compartments in FIG. 19A), a global optimization procedure was used to fit measured BRV and BVU kinetics in serum and intestinal compartments of GN^MUT mice. […]
# Measured BRV and BVU kinetics in serum and intestinal compartments of GN^MUT mice were used to parameterize processes independent from bacterial BRV conversion (grey compartments as illustrated in FIG. 19A) using the global optimization procedure to best fit the measured data. […]
# To parameterize processes dependent on microbial BRV metabolism (green compartments in FIG. 19A), including bacterial BRV to BVU conversion (kc^B) and BVU absorption rates from cecum and colon (KaLI1^M and kaLI2^M), measured BRV and BVU kinetics in cecum and colon (but not serum) of GN^WT mice, as illustrated in FIGS. 19C and 20A, are used. […]
# [2] = assay type: in vivo, C57BL/6J mice
# Method: Germfree mice were colonized with the wildtype and mutant strains. BRV was administered.
# Individually caged GF C57BL/6J mice are colonized by oral gavage with 200 μL of an overnight GMM culture of either B. thetaiotaomicron wild type or bt4554 strains to generate GN^WT or GN^MUT mice, respectively. After 4 days, bacterial loads are determined by CFU plating on BHI blood agar prior to drug treatment.
# (§1) Each drug treatment is performed using 20 treated and 5 to 6 untreated animals. Both genders are equally represented in each group and evenly distributed across the different time points for sample collection. Animals (n=5 per time point and group) are given 100 mg/kg body weight of BRV or SRV as suspensions in PBS (200 μL PBS for controls) by oral gavage. One blood sample is collected from each animal at an early time point (0.5, 1, 1.5, or 2 hours after drug administration) by submandibular bleeding. At 3, 5, 7, and 9 h, mice are sacrificed and tissue samples are collected into sample tubes and snap-frozen. Fecal samples are collected before euthanization and re-suspended in PBS (1 mL) through vigorous shaking. 20 μL are then plated on BHI blood plates and incubated aerobically and anaerobically at 37° C. to check GF, GN^WT, and GN^MUT animals for contamination. Monocolonized mice are also checked for contamination by PCR using primers 7 and 8.
# [3] = Oral BRV in conventional (CV) and germfree (GF) mice, drug and metabolite levels; assay type: in vivo, C57BL/6 mice
# Method: Oral BRV was administered to conventional (CV) and germfree (GF) C57BL/6 mice, and BRV and BVU concentrations were measured over time along the length of the gastrointestinal tract as shown in FIG. 4C. Serum kinetics of BRV and BVU in conventional (CV) and germ-free (GF) mice were compared following oral BRV administration.
# All experiments using mice are performed using protocols approved by the Yale University Institutional Animal Care and Use Committee. Germfree (GF) 8 to 12 week old C57BL/6J mice are maintained in flexible plastic gnotobiotic isolators with a 12-hour light/dark cycle and GF status monitored by PCR and culture-based methods. Conventional C57BL/6J mice (Jackson Laboratories) are purchased at the age of 6-7 weeks and kept in the lab for 2-3 weeks before experiments. All mice are provided a standard, autoclaved mouse chow (5013 LabDiet, Purina) ad libitum.
# as §1
# 200 μL of 0.1 mm zirconia/silica beads (BioSpec Products) and 500 μL of organic solvent (acetonitrile:methanol, 1:1) supplemented with internal standard are added to 50-350 mg of pre-weighed solid material. Material is homogenized by mechanical disruption with a bead beater (BioSpec Products) set for 2 minutes on high setting at room temperature. After incubation for at least 1 h at −20° C., samples are centrifuged (3220 rcf, −9° C.) for 15 min. 10 μL of supernatant are diluted with 10 μL H2O for analysis by LC-MS.
# Samples for LS-MS analysis are prepared as described above. Chromatographic separation is performed on a C18 Kinetex Evo column (Phenomenex, 100 mm×2.1 mm, […]) using mobile phase A: H2O, 0.1% formic acid and B: methanol, 0.1% formic acid at 45° C. 5 μL of sample are injected at 100% A and 0.4 mL/min flow followed by a linear gradient to 95% B over 5.5 min and 0.4 mL/min flow leading to thymine, BVU, SRV, and BRV elution at 0.95, 2.0, 2.15, and 2.4 min, respectively. The internal standards caffeine and sulfamethoxazole elute at 1.9 and 2.1 min, respectively. The qTOF is operated in positive scanning mode (50-1000 m/z) and the following source parameters: VCap is 3500 V; nozzle voltage is 2000 V; gas temp is 225 C; drying gas 13 L/min; nebulizer is 20 psig; sheath gas temp is 225 C; and sheath gas flow is 12 L/min. Online mass calibration is performed using a second ionization source and a constant flow (5 μL/min) of reference solution (121.0509 and 922.0098 m/z). Compounds are identified based on the retention time of chemical standards and their accurate mass (tolerance 20 ppm).
smiles,measurement,setting,value
"O=c1[nH]cc(/C=C/Br)c(=O)[nH]1 [BVU, bromovinyluracil]",microbial share of total BVU exposure in serum (area under the curve),[1],77%
same,serum BVU levels,[2]; GN^WT compared to GN^MUT mice,significantly higher
same,absorption of BVU from cecum and colon,[2]; GN^WT mice,almost entirely absorbed
same,BVU levels in the liver,[2]; GN^WT mice after BRV administration,increased BVU levels
same,BVU concentrations in the liver,"[3]; CV compared to GF mice, oral BRV",increased
same,BVU intestinal concentrations,"[3]; CV mice compared to GF controls, oral BRV",increased intestinal concentrations
same,concentrations of BVU in serum,"[3]; CV versus GF mice, later timepoints after oral BRV",significantly higher
